Results as given in patent publication US20230148005A1, “MACROCYCLIC COMPOUNDS AND USES THEREOF” (THESEUS PHARMACEUTICALS, INC., priority 2020, published 2023).
Read-outs that look alike come from different tables or passages of the source.

Legend:
[1] = biological target: Ba/F3 EGFR-Del19/T790M (Homo sapiens, UniProt P00533, T790M, cells depend on it, form not given); assay: Ba/F3 viability assay (CellTiter-Glo), DT; type: cell-based; conditions: anti-proliferation, read-out: BaF3 DT IC50
Text: (§1) Inhibition of cell proliferation can be studied using Ba/F3 viability assays, including the Promega CellTiter-Glo cell viability assay. This assay can be used to study the effect of compounds described herein in the following assays: (1) Ba/F3 Parental; (2) Ba/F3 EGFR-Del19/T790M; (3); Ba/F3 EGFR-Del19/C797S; and (4) Ba/F3 EGFR-Del19/T790M/C797S.

[2] = biological target: EGFR^L858R (Homo sapiens, UniProt P00533, L858R); assay: in vitro kinase assay (HTRF KinEASE-TK kit), L; type: biochemical; conditions: kinase inhibition
EGFR^L858R, sequence (P00533 25-1210 L858R): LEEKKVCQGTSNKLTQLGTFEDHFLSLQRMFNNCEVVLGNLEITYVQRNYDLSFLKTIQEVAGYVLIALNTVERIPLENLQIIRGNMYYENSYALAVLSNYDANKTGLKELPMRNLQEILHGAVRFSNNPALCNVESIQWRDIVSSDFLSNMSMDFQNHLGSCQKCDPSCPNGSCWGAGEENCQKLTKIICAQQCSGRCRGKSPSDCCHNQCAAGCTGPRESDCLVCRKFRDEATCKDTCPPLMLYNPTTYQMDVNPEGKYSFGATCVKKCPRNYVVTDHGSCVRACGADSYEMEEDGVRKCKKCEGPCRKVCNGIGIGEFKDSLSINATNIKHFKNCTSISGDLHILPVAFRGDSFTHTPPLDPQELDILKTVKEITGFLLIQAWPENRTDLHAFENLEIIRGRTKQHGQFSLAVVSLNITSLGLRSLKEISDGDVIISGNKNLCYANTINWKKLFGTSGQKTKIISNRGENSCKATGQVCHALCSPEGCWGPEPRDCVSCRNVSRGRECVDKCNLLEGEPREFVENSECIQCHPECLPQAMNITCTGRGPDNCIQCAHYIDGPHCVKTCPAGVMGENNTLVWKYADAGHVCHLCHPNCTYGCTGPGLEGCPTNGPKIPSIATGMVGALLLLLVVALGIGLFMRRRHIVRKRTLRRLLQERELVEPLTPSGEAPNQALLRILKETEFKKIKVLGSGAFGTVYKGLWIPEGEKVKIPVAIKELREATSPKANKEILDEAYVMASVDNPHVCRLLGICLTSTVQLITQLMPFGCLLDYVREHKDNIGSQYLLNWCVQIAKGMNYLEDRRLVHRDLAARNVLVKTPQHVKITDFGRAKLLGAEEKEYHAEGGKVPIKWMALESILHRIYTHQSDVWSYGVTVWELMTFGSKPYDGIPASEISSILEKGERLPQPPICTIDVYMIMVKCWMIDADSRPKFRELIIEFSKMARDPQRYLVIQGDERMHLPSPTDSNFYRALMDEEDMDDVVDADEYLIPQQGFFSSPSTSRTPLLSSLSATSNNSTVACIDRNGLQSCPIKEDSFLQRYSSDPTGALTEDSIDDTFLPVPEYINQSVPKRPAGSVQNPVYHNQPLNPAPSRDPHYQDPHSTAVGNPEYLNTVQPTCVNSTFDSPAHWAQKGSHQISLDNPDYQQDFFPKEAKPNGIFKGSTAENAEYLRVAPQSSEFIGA
Text: (§2) Assays using an in vitro kinase assay kit (HTRF KinEASE-TK kit) can be used to study the inhibitory activity of compounds described herein with respect to EGFR mutants such as EGFR^L858R, EGFR^L58R/T790M, and EGFR^L858R/T790M/C^797S.

[3] = biological target: EGFR^L858R/T790M/C^797S (Homo sapiens, UniProt P00533, C797S/L858R/T790M); assay: in vitro kinase assay (HTRF KinEASE-TK kit), LTC; type: biochemical; conditions: kinase inhibition
Text: as §2

[4] = biological target: EGFR^L58R/T790M (Homo sapiens, UniProt P00533, L858R/T790M); assay: in vitro kinase assay (HTRF KinEASE-TK kit), LT; type: biochemical; conditions: kinase inhibition
EGFR^L58R/T790M, sequence (P00533 25-1210 T790M/L858R): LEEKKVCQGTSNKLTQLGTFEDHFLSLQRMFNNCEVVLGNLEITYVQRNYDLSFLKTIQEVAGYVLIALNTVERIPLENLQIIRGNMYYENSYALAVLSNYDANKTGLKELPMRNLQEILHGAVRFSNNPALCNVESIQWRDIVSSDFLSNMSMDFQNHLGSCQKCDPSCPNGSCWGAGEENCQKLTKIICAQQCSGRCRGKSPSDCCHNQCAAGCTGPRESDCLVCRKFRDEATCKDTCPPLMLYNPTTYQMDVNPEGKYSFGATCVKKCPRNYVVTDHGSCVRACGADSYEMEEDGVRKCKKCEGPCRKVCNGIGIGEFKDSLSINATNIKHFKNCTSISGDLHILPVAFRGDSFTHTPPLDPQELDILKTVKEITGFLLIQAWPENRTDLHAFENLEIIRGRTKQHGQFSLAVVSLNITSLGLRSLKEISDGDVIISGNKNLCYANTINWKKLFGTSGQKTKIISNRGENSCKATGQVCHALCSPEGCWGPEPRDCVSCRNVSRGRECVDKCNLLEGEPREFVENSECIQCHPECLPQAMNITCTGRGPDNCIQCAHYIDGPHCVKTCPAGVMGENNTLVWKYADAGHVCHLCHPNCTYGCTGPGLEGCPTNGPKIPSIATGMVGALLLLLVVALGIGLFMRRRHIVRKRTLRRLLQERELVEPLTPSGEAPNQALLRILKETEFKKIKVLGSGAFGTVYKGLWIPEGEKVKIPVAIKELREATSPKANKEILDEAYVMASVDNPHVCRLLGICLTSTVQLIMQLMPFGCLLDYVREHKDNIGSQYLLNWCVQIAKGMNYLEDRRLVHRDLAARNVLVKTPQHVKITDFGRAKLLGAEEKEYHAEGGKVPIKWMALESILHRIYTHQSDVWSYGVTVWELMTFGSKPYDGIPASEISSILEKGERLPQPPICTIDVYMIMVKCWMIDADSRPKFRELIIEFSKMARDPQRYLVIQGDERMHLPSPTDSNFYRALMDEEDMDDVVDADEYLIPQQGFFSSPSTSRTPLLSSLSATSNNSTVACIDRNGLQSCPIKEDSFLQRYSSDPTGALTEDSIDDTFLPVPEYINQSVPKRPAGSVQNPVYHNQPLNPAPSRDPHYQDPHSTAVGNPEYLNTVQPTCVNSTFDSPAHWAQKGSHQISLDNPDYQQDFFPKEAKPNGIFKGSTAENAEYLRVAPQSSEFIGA
Text: as §2

[5] = biological target: Ba/F3 EGFR-Del19/C797S (Homo sapiens, UniProt P00533, C797S, cells depend on it, form not given); assay: Ba/F3 viability assay (CellTiter-Glo), DC; type: cell-based; conditions: anti-proliferation, read-out: BaF3 DC IC50
Ba/F3 EGFR-Del19/C797S, sequence (P00533 with tags, fused parts or gaps DEL746-750/C797S, form open): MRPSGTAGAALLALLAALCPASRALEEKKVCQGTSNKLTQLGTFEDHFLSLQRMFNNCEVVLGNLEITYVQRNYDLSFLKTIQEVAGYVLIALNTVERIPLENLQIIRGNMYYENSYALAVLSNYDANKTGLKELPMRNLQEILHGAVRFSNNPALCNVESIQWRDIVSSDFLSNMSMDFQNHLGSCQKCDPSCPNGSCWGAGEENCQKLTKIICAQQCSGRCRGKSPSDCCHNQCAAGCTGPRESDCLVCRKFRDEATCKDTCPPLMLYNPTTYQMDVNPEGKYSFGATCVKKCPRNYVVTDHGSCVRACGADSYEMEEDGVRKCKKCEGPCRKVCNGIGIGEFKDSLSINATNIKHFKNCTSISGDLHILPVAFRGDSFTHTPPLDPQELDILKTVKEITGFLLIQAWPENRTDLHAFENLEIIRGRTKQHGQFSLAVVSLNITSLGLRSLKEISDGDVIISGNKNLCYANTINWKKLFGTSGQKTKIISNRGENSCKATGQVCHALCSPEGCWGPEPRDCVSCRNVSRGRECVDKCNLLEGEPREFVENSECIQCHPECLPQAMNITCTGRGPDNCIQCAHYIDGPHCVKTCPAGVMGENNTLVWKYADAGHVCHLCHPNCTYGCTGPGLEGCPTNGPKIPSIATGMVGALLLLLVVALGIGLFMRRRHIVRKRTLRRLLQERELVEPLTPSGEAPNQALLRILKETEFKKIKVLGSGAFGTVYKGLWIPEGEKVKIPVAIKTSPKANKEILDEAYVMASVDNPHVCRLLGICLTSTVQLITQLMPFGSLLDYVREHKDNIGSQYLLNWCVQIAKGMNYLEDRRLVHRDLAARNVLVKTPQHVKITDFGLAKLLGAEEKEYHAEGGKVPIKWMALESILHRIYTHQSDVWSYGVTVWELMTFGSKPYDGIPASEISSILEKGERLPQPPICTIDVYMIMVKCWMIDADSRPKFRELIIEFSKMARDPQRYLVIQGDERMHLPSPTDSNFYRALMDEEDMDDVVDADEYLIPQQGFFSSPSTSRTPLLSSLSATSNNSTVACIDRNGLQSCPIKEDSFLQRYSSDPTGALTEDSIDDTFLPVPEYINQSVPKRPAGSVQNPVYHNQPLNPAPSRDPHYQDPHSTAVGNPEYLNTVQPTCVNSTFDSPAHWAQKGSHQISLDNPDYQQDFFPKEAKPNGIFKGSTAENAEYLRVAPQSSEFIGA
Text: as §1

[6] = biological target: Ba/F3 EGFR-Del19/T790M/C797S (Homo sapiens, UniProt P00533, T790M/C797S, cells depend on it, form not given); assay: Ba/F3 viability assay (CellTiter-Glo), DTC; type: cell-based; conditions: anti-proliferation, read-out: BaF3 DTC IC50
Text: as §1

[7] = system: Ba/F3 Parental; assay: Ba/F3 viability assay (CellTiter-Glo), parental; type: cell-based
Text: as §1

[8] = Mus musculus, BaF3, anti-proliferation

Ba/F3 EGFR-Del19/T790M, sequence (P00533 with tags, fused parts or gaps DEL746-750/T790M, form open): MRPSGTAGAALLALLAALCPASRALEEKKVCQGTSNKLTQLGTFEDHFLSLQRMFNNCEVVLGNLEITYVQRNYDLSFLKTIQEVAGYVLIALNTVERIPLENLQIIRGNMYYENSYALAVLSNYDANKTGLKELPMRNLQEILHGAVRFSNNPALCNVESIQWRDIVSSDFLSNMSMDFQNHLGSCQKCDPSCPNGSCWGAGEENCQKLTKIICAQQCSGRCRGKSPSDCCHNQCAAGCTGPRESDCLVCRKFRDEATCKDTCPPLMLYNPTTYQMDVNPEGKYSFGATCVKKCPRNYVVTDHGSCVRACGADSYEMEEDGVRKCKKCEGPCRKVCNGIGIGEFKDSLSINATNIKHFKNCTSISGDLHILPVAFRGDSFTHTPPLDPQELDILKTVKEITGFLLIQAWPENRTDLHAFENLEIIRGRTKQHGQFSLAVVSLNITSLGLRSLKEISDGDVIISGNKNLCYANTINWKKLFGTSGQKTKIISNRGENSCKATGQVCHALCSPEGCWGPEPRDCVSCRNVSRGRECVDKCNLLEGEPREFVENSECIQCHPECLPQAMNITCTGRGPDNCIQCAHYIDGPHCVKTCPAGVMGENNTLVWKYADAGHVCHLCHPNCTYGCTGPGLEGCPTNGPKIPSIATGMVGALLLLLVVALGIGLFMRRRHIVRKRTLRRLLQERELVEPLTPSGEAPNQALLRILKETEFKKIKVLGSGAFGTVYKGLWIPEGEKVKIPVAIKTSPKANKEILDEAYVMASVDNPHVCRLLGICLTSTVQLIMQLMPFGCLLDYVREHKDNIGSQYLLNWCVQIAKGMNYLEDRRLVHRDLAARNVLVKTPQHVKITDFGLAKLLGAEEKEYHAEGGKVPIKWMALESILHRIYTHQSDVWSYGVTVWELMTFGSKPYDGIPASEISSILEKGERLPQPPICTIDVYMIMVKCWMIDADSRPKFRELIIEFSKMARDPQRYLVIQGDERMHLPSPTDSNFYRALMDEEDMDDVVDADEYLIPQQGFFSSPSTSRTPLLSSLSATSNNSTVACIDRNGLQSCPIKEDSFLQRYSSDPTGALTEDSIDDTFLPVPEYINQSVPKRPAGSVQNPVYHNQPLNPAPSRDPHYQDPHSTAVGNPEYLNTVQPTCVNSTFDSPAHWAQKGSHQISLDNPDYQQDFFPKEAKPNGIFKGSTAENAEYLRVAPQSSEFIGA

Compound	GI50 [1] [nM]	IC50 [2] [nM]	IC50 [3] [nM]	IC50 [4] [nM]	GI50 [5] [nM]	GI50 [6] [nM]	IC50 [7, 8] [nM]	IC50 ([7]; anti-proliferation, read-out: BaF3 parental IC50) [nM]
CC1CCCOc2c(cnn2C)-c2nccc(n2)Nc2cc3c(cn2)c(N2CCC2)nn31 (stereo not drawn) [(1)]	< 10	< 10	< 10	< 10	10 to 100	< 10	100 to 1000	–
CC(C)n1ncc2c1OCCCC(C)n1nc(N3CCC3)c3cnc(cc31)Nc1ccnc-2n1 (stereo not drawn) [(74)]	100 to 1000	100 to 1000	< 10	< 10	100 to 1000	100 to 1000	≥ 1000	–
CCN(CC)CCOc1cc(-c2nn3c4cc(ncc24)Nc2ccnc(n2)-c2cnn(C)c2OCC[C@@H]3C)ccc1F [(149)]	< 10	< 10	< 10	< 10	10 to 100	< 10	100 to 1000	–
C[C@H]1CCOc2c(cnn2C)-c2nccc(n2)Nc2cc3c(cn2)c(-c2ccc(F)c(OCCN(C)C)c2)nn31 [(131)]	< 10	< 10	< 10	< 10	< 10	< 10	100 to 1000	–
C[C@H]1CCOc2c(cnn2C)-c2nccc(n2)Nc2cc3c(cn2)c(-c2ccc(CN4CCCCC4)n2C)nn31 [(121)]	< 10	< 10	< 10	< 10	< 10	< 10	100 to 1000	–
CCCN1CCN(Cc2ccc(-c3nn4c5cc(ncc35)Nc3ccnc(n3)-c3cnn(C)c3OCC[C@@H]4C)n2C)CC1 [(135)]	< 10	< 10	< 10	< 10	< 10	< 10	100 to 1000	–
CN(C)CC1CCCN1c1nn2c3cc(ncc13)Nc1ccnc(n1)-c1cnn(C)c1OCCC2 (stereo not drawn) [(11)]	100 to 1000	100 to 1000	< 10	< 10	100 to 1000	100 to 1000	100 to 1000	–
C[C@H]1CCOc2c(cnn2C)-c2nccc(n2)Nc2cc3c(cn2)c(-c2ccc(CN4CCOCC4)n2C)nn31 [(120)]	< 10	< 10	< 10	< 10	10 to 100	< 10	100 to 1000	–
C[C@H]1CCOc2c(cnn2C)-c2nccc(n2)Nc2cc3c(cn2)c(-c2cc(CN4CCOCC4)n(C)c2)nn31 [(139)]	< 10	< 10	< 10	< 10	< 10	< 10	100 to 1000	–
C[C@H]1CCOc2c(cnn2C)-c2nccc(n2)Nc2cc3c(cn2)c(-c2cccc(CN4CCOCC4)c2)nn31 [(177)]	10 to 100	10 to 100	< 10	< 10	10 to 100	< 10	100 to 1000	–
C[C@H]1CCOc2c(cnn2C)-c2nccc(n2)Nc2cc3c(cn2)c(-c2cc(CN(C)C)ccn2)nn31 [(183)]	10 to 100	< 10	< 10	< 10	10 to 100	< 10	100 to 1000	–
C[C@H]1CCOc2c(cnn2C)-c2nccc(n2)Nc2cc3c(cn2)c(N2CC[C@@H](N(C)C)C2)nn31 [(181)]	10 to 100	< 10	< 10	< 10	10 to 100	10 to 100	–	100 to 1000
CCn1nccc1-c1nn2c3cc(ncc13)Nc1ccnc(n1)-c1cnn(C)c1OCCCC2C (stereo not drawn) [(86)]	10 to 100	10 to 100	< 10	< 10	10 to 100	10 to 100	≥ 1000	–
C[C@H]1CCOc2c(cnn2C)-c2nccc(n2)Nc2cc3c(cn2)c(-c2ccc(CN(C)C)cc2)nn31 [(176)]	< 10	< 10	< 10	< 10	10 to 100	< 10	100 to 1000	–
C[C@H]1CCOc2c(cnn2C)-c2nccc(n2)Nc2cc3c(cn2)c(-c2cccc(N4CCC(N5CCN(C)CC5)CC4)c2)nn31 [(173)]	< 10	< 10	< 10	< 10	< 10	< 10	100 to 1000	–
CCN(CC)CCOc1cc(F)cc(-c2nn3c4cc(ncc24)Nc2ccnc(n2)-c2cnn(C)c2OCC[C@@H]3C)c1 [(133)]	10 to 100	10 to 100	< 10	< 10	10 to 100	10 to 100	100 to 1000	–
CCN(CC)CCn1cc(-c2nn3c4cc(ncc24)Nc2ccnc(n2)-c2cnn(C)c2OCC[C@@H]3C)cn1 [(117)]	< 10	< 10	< 10	< 10	10 to 100	< 10	10 to 100	–
C[C@H]1CCOc2c(cnn2C)-c2nccc(n2)Nc2cc3c(cn2)c(-c2cccc(N4CC[C@@H](N(C)C)C4)c2)nn31 [(166)]	< 10	< 10	< 10	< 10	< 10	< 10	100 to 1000	–
C[C@H]1CCOc2c(cnn2C)-c2nccc(n2)Nc2cc3c(cn2)c(N2CC[C@H](CN(C)CCF)C2)nn31 [(169)]	< 10	< 10	< 10	< 10	< 10	< 10	100 to 1000	–
CC1CCOc2c(cnn2CC2CC2)-c2nccc(n2)Nc2cc3c(cn2)c(N2CCC2)nn31 (stereo not drawn) [(2)]	10 to 100	10 to 100	< 10	< 10	10 to 100	10 to 100	100 to 1000	–
C[C@H]1CCOc2c(cnn2C)-c2nccc(n2)Nc2cc3c(cn2)c(-c2ncc(CN(C)C)s2)nn31 [(157)]	10 to 100	< 10	< 10	< 10	10 to 100	< 10	100 to 1000	–
Cn1ncc2c1OCCCn1nc(N3CCCC3C(=O)O)c3cnc(cc31)Nc1ccnc-2n1 (stereo not drawn) [(65)]	100 to 1000	100 to 1000	< 10	< 10	100 to 1000	100 to 1000	100 to 1000	–
Cc1c(-c2nn3c4cc(ncc24)Nc2ccnc(n2)-c2cnn(C)c2OCCCC3C)cnn1CCC(C)(C)O (stereo not drawn) [(92)]	10 to 100	10 to 100	< 10	< 10	10 to 100	10 to 100	100 to 1000	–
CC1CCOc2c(cnn2C)-c2nccc(n2)Nc2cc3c(cn2)c(-c2ccn(C)n2)nn31 (stereo not drawn) [(69)]	10 to 100	10 to 100	< 10	< 10	10 to 100	10 to 100	≥ 1000	–
CCn1cc(C(=O)N2CCN(C)CC2)cc1-c1nn2c3cc(ncc13)Nc1ccnc(n1)-c1cnn(C)c1OCCC2C (stereo not drawn) [(88)]	100 to 1000	10 to 100	< 10	< 10	100 to 1000	100 to 1000	100 to 1000	–
C[C@H]1CCOc2c(cnn2C)-c2nccc(n2)Nc2cc3c(cn2)c(-c2ccnc(N4CCN(C)CC4)c2)nn31 [(96)]	10 to 100	< 10	< 10	< 10	10 to 100	10 to 100	100 to 1000	–
C[C@H]1CCOc2c(cnn2C)-c2nccc(n2)Nc2cc3c(cn2)c(-c2ccc(CN4CCN(CCF)CC4)n2C)nn31 [(193)]	< 10	< 10	< 10	< 10	< 10	< 10	100 to 1000	–
C[C@H]1CCOc2c(cnn2C)-c2nccc(n2)Nc2cc3c(cn2)c(-c2cc(OCCN(C)C)ccc2F)nn31 [(130)]	10 to 100	10 to 100	< 10	< 10	10 to 100	10 to 100	≥ 1000	–
C[C@H]1CCOc2c(cnn2C)-c2nccc(n2)Nc2cc3c(cn2)c(-c2cc(CN4CCN(C5CC5)CC4)n(C)c2)nn31 [(147)]	< 10	< 10	< 10	< 10	< 10	< 10	100 to 1000	–
C[C@H]1CCOc2c(cnn2C)-c2nccc(n2)Nc2cc3c(cn2)c(-c2cccc(N4CCC(N(C)C)CC4)c2)nn31 [(108)]	10 to 100	< 10	< 10	< 10	10 to 100	< 10	100 to 1000	–
